Results taken from patent publication US9128046B2, “Slide holder assembly for comet assay” (Cellomics, Inc., priority 2011, dated 2015).

Tests used:
[1] = test system: CHO-K1 cells; assay: comet assay of DNA repair over varied durations of time; assay type: cell-based; details: treated CHO-K1 cells layered onto wells for varied durations of time; FIG. 12
Method: In another sample comet assay, CHO-K1 cells were treated with 9-aminoacridine and the treated cells were layered onto select wells on the glass slide for varied durations of time. The cells were allowed to soak in a lysis solution and then an electrophoresis buffer while in the slide holder assembly. The cells were then electrophoresed while in the slide holder assembly and then imaged using the ToxInsight IVT Platform.

[2] = test system: CHO-K1 cells; assay: comet assay on CHO-K1 cells in slide holder assembly; assay type: cell-based; details: CHO-K1 cells treated with 100 μM for one hour; imaged with ToxInsight IVT platform
Method: Exemplary comet assays were performed using the above devices and methods. For example, in one comet assay, comets were successfully generated and analyzed using CHO-K1 cells on a 96-well glass slide. To ensure that comets would be produced, half of the CHO-K1 cells were treated with 100 μM 9-aminoacridine for one hour. A 96-well glass slide was secured within a slide holder assembly and half of the slide was layered with the treated CHO-K1 cells while the other half was layered with untreated CHO-K1 cells. The cells were allowed to soak in a lysis solution and then an electrophoresis buffer while in the slide holder assembly. The cells were then electrophoresed while in the slide holder assembly and then imaged using the ToxInsight IVT platform.
In FIG. 11, the untreated CHO-K1 cells 342 are shown in columns 1-6 (i.e., the left half of the image) and the treated CHO-K1 cells 344 are shown in columns 7-12 (i.e., on the right half). […] In the sample comet assay, the ToxInsight® IVT Platform was used as the cell imaging system to scan 25 fields/well. Using the Comet.V4 BioApplication software developed by Cellomics Inc., 14,075 comets were automatically selected by the cell imaging system within a time period of 20 minutes, 29 seconds. […] This translates to over one million comets that could be analyzed per 24-hour day.

With `Nc1c2ccccc2nc2ccccc12` [9-aminoacridine] the “DNA repair quantified in comets” value [1] was “time-dependent response of DNA repair” and the “comet formation (DNA damage)” value [2] was “comets were formed and imaged on the treated cells”.
